Assays:
MV411 cell line = assay: Cell viability assay ([…]-GLO), MV411; format: cell-based; conditions: for IC50: MV411 (ITD-FLT3+), 72 hours treatment; for FLT3-ITD+ Selectivity (K562/MV411): ratio K562/MV411
Method: Cell viability was measured by the […] -GlO® cell viability assay from Promega (Madison, Wis.). The […] -GlO Luminescent Cell Viability Assay is a homogeneous method to determine the number of viable cells in culture based on quantitation of the ATP present, which signals the presence of metabolically active cells. Following treatment, […] -GlO® is added to treatment wells and incubated at 37° C. Luminescence values were measured at using a Molecular Devices Spectramax microplate reader.

ROCK2 = ROCK2 (Homo sapiens (Human), UniProt O75116); assay: ROCK2 kinase inhibition assay (peptide phosphorylation, LABCHIP 3000); format: biochemical; conditions: 7 μM ATP, 2.5 nM ROCK2, 3 hours at 25° C.
Method: The peptide is phosphorylated by the protein kinase ROCK1 or ROCK2. The ROCK1 or ROCK2 enzyme, substrate, and cofactors (ATP and Mg^2+) are combined in a well of a microtiter plate and incubated for 3 hours at 25° C. in the presence or absence of an inhibitor compound. At the end of the incubation, the reaction is quenched by the addition of an EDTA-containing buffer. The substrate and product are separated and quantified electrophoretically using the microfluidic-based LABCHIP® 3000 Drug Discovery System from Caliper Life Sciences (Hopkinton, Mass.).
The components of the assay mixture are:
10 μM Sodium Orthovanadate
10 LM Beta-Glycerophosphate
5 μM ATP (for ROCK1) or 7 μM ATP (for ROCK2)
3 nM ROCK1 or 2.5 nM ROCK2 enzyme
Substrate and product peptides present in each sample are separated electrophoretically using the LABCHIP® 3000 capillary electrophoresis instrument. […] Change in the relative fluorescence intensity of the substrate and product peaks is the parameter measured reflecting enzyme activity. Capillary electrophoregramms (RDA acquisition files) are analyzed using HTS Well Analyzer software (Caliper Life Sciences, Hopkinton, Mass.). The kinase activity in each sample is determined as the product to sum ratio (PSR): P/(S+P), where P is the peak height of the product peptide and S is the peak height of the substrate peptide. For each compound, enzyme activity is measured at various concentrations (12 concentrations of compound spaced by 3× dilution intervals). Negative control samples (0%-inhibition in the absence of inhibitor) and positive control samples (100%-inhibition in the presence of 20 mM EDTA) are assembled in replicates of four and are used to calculate %-inhibition values for each compound at each concentration. Percent inhibition (Pinh) is determined using the following equation: Pinh=(PSRO %−PSRinh)/(PSRO %−PSR100%)*100
where PSRinh is the product sum ratio in the presence of inhibitor, PSRO % is the average product sum ratio in the absence of inhibitor, and PSR100% is the average product sum ratio in 100%-inhibition control samples. The IC50 values of inhibitors are determined by fitting the inhibition curves (Pinh versus inhibitor concentration) by the 4-parameter sigmoidal dose-response model using XLfit 4 software (IBDS).

K562 cell line = assay: Cell viability assay ([…]-GLO), K562; format: cell-based; conditions: K562 (does not express ITD-FLT3), 72 hours treatment
Method: Cell viability in the presence of varying concentrations of the above listed compounds at different time points was used to assess cytotoxicity and the effect of the compounds on cell proliferation.
Cell viability was measured by the […]-GlO® cell viability assay from Promega (Madison, Wis.). The […]-GlO Luminescent Cell Viability Assay is a homogeneous method to determine the number of viable cells in culture based on quantitation of the ATP present, which signals the presence of metabolically active cells. Following treatment, […]-GlO® is added to treatment wells and incubated at 37° C. Luminescence values were measured at using a Molecular Devices Spectramax microplate reader.
Cells were grown to 70% confluency, trypsinized, counted, and seeded in 96 well flat-bottom plates at a final concentration of 2.5×10^3-5×10^3 cells/well (Day 0). Cells were allowed to incubate in growth media for 24 hours. Treatment with the test agents or standard agents began on Day 1 and continued for 72 hours. At the 72-hour time point, treatment containing media was removed. Viable cell numbers were quantified by the […]-GLO® cell viability assay as described above. Results from these studies were used to calculate an IC50 value (concentration of drug that inhibits cell growth by 50 percent of control) for each compound.
For single agent and combination studies, data from each experiment was collected and expressed as % Cell Growth using the following calculation: % Cell Growth=(ftest/fvehicle)×100
Where ftest is the luminescence of the tested sample, and fvehicle is the luminescence of the vehicle in which the drug is dissolved. Dose response graphs and IC50 values were generated using Prism 6 software (GraphPad) using the following equation: Y=(Top−Bottom)/(1+10^((logIC50-X)−HillSlope))
Where X is the logarithm of the concentration and Y is the response. Y starts at the Bottom and goes to the Top with a sigmoid shape.
The experiments also evaluated the selectivity of the compounds for inhibiting growth of cancer cells carrying a mutation in the Flt3 gene. The MV411 cell line expresses the mutant allele of Flt3 with internal tandem duplications (ITD) of the gene. See Quentmeier et al., “FLT3 Mutations in Acute Myeloid Leukemia Cell Lines,” Leukemia 17(1), 2003, 120-124. […] See Grafone et al., “Monitoring of FLT3 Phosphorylation Status and Its Response to Drugs By Flow Cytometry in AML Blast Cells,” Hematol Oncol. 26(3), 2008, 159-166.

Sequence of ROCK2 (O75116 whole entry, species assumed): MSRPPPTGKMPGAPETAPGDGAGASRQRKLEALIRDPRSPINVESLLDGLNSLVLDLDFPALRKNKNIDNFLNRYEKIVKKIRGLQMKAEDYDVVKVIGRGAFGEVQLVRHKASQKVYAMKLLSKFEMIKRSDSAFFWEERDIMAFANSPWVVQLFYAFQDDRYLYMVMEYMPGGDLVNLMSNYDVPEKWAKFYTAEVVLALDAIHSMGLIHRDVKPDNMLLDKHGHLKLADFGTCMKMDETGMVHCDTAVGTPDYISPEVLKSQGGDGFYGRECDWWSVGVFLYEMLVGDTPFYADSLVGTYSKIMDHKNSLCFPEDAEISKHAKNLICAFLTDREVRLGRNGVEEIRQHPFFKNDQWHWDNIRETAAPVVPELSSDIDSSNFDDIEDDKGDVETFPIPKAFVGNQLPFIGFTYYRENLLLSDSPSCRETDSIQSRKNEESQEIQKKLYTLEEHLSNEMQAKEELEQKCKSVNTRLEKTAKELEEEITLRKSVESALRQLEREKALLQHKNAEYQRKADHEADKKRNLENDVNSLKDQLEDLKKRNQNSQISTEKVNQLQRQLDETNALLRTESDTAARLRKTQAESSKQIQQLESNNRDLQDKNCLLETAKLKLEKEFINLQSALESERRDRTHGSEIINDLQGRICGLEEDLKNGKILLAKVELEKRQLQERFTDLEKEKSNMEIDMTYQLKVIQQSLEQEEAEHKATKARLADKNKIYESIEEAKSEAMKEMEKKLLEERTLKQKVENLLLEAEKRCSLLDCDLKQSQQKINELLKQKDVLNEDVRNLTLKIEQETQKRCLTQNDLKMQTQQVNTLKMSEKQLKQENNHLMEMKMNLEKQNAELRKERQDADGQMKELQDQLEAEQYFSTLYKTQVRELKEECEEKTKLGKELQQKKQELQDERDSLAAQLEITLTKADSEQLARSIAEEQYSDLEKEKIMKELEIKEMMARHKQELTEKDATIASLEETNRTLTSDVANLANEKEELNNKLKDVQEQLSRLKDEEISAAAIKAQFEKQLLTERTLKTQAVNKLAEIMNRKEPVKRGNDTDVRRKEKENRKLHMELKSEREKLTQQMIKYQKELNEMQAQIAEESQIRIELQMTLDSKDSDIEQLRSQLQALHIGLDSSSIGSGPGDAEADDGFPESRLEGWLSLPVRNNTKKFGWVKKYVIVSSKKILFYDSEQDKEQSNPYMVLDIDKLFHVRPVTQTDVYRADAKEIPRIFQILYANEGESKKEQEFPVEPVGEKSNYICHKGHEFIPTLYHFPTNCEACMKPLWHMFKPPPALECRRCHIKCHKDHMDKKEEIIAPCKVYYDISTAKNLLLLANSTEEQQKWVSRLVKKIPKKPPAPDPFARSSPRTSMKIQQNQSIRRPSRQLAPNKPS

Row | SMILES | IC50 (MV411 cell line; Homo sapiens, MV4-11) [nM] | IC50 (ROCK2) [nM] | IC50 (K562 cell line; Homo sapiens) [nM] | IC50 (MV411 cell line) [nM] | IC50 (K562 cell line) [nM] | FLT3-ITD+ Selectivity (K562/MV411) (MV411 cell line)
1 | O=C(Nc1ccccc1)c1cccc([C@@H](CO)NC(=O)c2ccc(-c3ccncc3)cc2)c1 [Compound 9] | 800 | 1.7 | 35000 | – | – | 47
2 | COc1ccc(CNC(=O)c2cccc([C@@H](CO)NC(=O)c3ccc(-c4ccncc4)cc3)c2)cc1 [Compound 85] | 90 | 0.6 | 33000 | – | – | 368
3 | COc1ccc(C(=O)N[C@H](C)c2cccc(C(=O)Nc3nc4c(s3)CN(C)CC4)c2)cc1C [Compound 17] | 13500 | 22.5 | > 100000 | – | – | >7
4 | O=C(NC1CCCC1)c1cccc([C@@H](CO)NC(=O)c2ccc(-c3ccncc3)cn2)c1 [Compound 51] | 1450 | 4.38 | > 100000 | – | – | >70
5 | CC(C)N1CCC(CNC(=O)c2cccc([C@@H](C)NC(=O)c3ccc(-c4ccncc4)cc3)c2)CC1 [Compound 60] | 40 | 0.53 | > 100000 | – | – | >2525
6 | O=C(NCc1cccc(F)c1)c1cccc([C@@H](CO)NC(=O)c2ccc(-c3ccncc3)cc2)c1 [Compound 75] | 160 | 0.5 | 33000 | – | – | 207
7 | CCOc1cc(-c2cn[nH]c2)ccc1C(=O)N[C@H](CO)c1cccc(C(=O)NC2CCCC2)c1 [Compound 101] | 80 | 0.25 | 15000 | – | – | 194
8 | COc1ccc(C(=O)N[C@H](CO)c2cccc(C(=O)Nc3nc4c(s3)CN(C)CC4)c2)cc1C [Compound 18] | 15900 | 19.6 | > 100000 | – | – | >6
9 | C[C@@H](NC(=O)c1ccc(-c2cn[nH]c2)cc1)c1cccc(C(=O)NC2CCCC2)c1 [Compound 97] | 110 | 0.74 | 17000 | – | – | 154
10 | CC(NC(=O)c1ccc(-c2ccncc2)cc1)c1cccc(OCC(=O)NC2CC2)c1 (stereo not drawn) [Compound 15] | 4000 | 9 | > 100000 | – | – | >25
11 | C[C@@H](NC(=O)c1ccc(-c2ccncc2)cc1)c1cccc(C(=O)NCc2ccc(CN(C)C)cc2)c1 [Compound 39] | 10 | 0.3 | 9400 | – | – | 940
12 | C[C@@H](NC(=O)c1ccc(-c2ccncc2)cc1)c1cccc(C(=O)Nc2ccc3c(c2)CN(C)CC3)c1 [Compound 6] | 200 | 1.2 | 8000 | – | – | 40
13 | CN(C)CCc1ccc(NC(=O)c2cccc([C@@H](CO)NC(=O)c3ccc(-c4ccncc4)cc3)c2)cc1 [Compound 20] | 10 | 1.2 | 16000 | – | – | 1585
14 | O=C(NC1CCCC1)c1cccc([C@@H](CO)NC(=O)c2ccc(-c3cn[nH]c3)cc2F)c1 [Compound 95] | 890 | 2.34 | 76000 | – | – | 86
15 | O=C(NC1CCCC1)c1cccc([C@@H](CO)NC(=O)c2cc(-c3ccncc3)n[nH]2)c1 [Compound 61] | 2500 | 2.12 | > 100000 | – | – | >40
16 | O=C(NC1CCCC1)c1cccc([C@@H](CO)NC(=O)c2ccc(-c3ccncc3)cc2F)c1 [Compound 86] | 1700 | 2.7 | > 100000 | – | – | >58
17 | COc1cc(-c2ccncc2)ccc1C(=O)N[C@H](CO)c1cccc(C(=O)NC2CCCC2)c1 [Compound 110] | 410 | 2.5 | > 100000 | – | – | 246
18 | CN(C)Cc1cccc(NC(=O)c2cccc([C@@H](CO)NC(=O)c3ccc(-c4ccncc4)cc3)c2)c1 [Compound 14] | 90 | 1.6 | 48000 | – | – | 532

The next lines start with results.

Row | IC50 (MV411 cell line; Homo sapiens, MV4-11) [nM] | IC50 (ROCK2) [nM] | IC50 (K562 cell line; Homo sapiens) [nM] | IC50 (MV411 cell line) [nM] | IC50 (K562 cell line) [nM] | SMILES | FLT3-ITD+ Selectivity (K562/MV411) (MV411 cell line)
19 | 440 | 1.01 | > 100000 | – | – | O=C(NC1CCC1)c1cccc([C@@H](CO)NC(=O)c2ccc(-c3ccncc3)cc2)c1 [Compound 48] | >230
20 | 120 | 0.47 | > 100000 | – | – | CC(C)N1CCC(NC(=O)c2cccc([C@@H](CO)NC(=O)c3ccc(-c4ccncc4)cc3)c2)CC1 [Compound 55] | >842
21 | 90 | 0.31 | > 100000 | – | – | CC(C)N1CCC(CNC(=O)c2cccc([C@@H](CO)NC(=O)c3ccc(-c4ccncc4)cc3)c2)CC1 [Compound 56] | >1122
22 | 280 | 0.46 | > 100000 | – | – | CCN1CCC(CNC(=O)c2cccc([C@@H](CO)NC(=O)c3ccc(-c4ccncc4)cc3)c2)CC1 [Compound 59] | >361
23 | 90 | 0.3 | 56000 | – | – | CN1CCC(CNC(=O)c2cccc([C@@H](CO)NC(=O)c3ccc(-c4ccncc4)cc3)c2)CC1 [Compound 23] | 632
24 | 1030 | 2.85 | 65000 | – | – | CC(C)NC(=O)c1cccc([C@@H](CO)NC(=O)c2ccc(-c3ccncc3)cc2)c1 [Compound 62] | 63
25 | – | 0.64 | – | 20 | > 100000 | COC(=O)N1CCC(NC(=O)c2cccc([C@@H](CO)NC(=O)c3ccc(-c4ccncc4)cc3)c2)CC1 [Compound 90] | >5050
26 | – | 0.68 | – | 30 | > 100000 | O=C(NC1CCN(CC(F)(F)F)CC1)c1cccc([C@@H](CO)NC(=O)c2ccc(-c3ccncc3)cc2)c1 [Compound 92] | >3061
27 | 270 | 0.8 | 23000 | – | – | COC1(CNC(=O)c2cccc([C@@H](CO)NC(=O)c3ccc(-c4ccncc4)cc3)c2)CCCC1 [Compound 87] | 85
28 | 9120 | 27.1 | 74000 | – | – | CN(C)CC1(NC(=O)c2cccc([C@@H](CO)NC(=O)c3ccc(-c4ccncc4)cc3)c2)CCCC1 [Compound 74] | 8
29 | 100 | 0.5 | 89000 | – | – | CN(C)C1(CNC(=O)c2cccc([C@@H](CO)NC(=O)c3ccc(-c4ccncc4)cc3)c2)CCCC1 [Compound 72] | 891
30 | 220 | 0.66 | > 100000 | – | – | O=C(NC1CCC(F)(F)CC1)c1cccc([C@@H](CO)NC(=O)c2ccc(-c3ccncc3)cc2)c1 [Compound 53] | >459
31 | 270 | 1.2 | 33000 | – | – | O=C(NCC1CC1)c1cccc([C@@H](CO)NC(=O)c2ccc(-c3ccncc3)cc2)c1 [Compound 84] | 123
32 | 70 | 0.54 | > 100000 | – | – | O=C(NC1CCN(C2CC2)CC1)c1cccc([C@@H](CO)NC(=O)c2ccc(-c3ccncc3)cc2)c1 [Compound 54] | >1443
33 | 2670 | 9.1 | 41000 | – | – | COCC1(NC(=O)c2cccc([C@@H](CO)NC(=O)c3ccc(-c4ccncc4)cc3)c2)CCCC1 [Compound 67] | 15
34 | 90 | 0.63 | > 100000 | – | – | CN1CCC(C)(CNC(=O)c2cccc([C@@H](CO)NC(=O)c3ccc(-c4ccncc4)cc3)c2)CC1 [Compound 57] | >1122
35 | 910 | 9 | 34000 | – | – | CC1(NC(=O)c2cccc([C@@H](CO)NC(=O)c3ccc(-c4ccncc4)cc3)c2)CCC1 [Compound 71] | 37
36 | 100 | 0.33 | > 100000 | – | – | CN1CCC(NC(=O)c2cccc([C@@H](CO)NC(=O)c3ccc(-c4ccncc4)cc3)c2)CC1 [Compound 50] | >1010

— US10738007B2, “Amide compounds as kinase inhibitors, compositions and methods of treatment” (TRANSLATIONAL DRUG DEVELOPMENT, LLC, priority 2016, dated 2020)
